Results as given in publication PMC5278707, “Structure-Activity Relationships of a Series of Echinocandins and the Discovery of CD101, a Highly Stable and Soluble Echinocandin with Distinctive Pharmacokinetic Properties” (Antimicrobial Agents and Chemotherapy, 2017).
Converted amounts (≈) assume the structure as drawn. Where two headings read alike, the source gives them in different places. *1 amine or outer side, *2 acyl side, *3 side chain or, on linkers, in order; H or OH if unused. Where a SMILES comes first, the peptide text is derived from it. Bridges are numbered along the chain shown (N, C = ends). [ ]: non-standard residue; d: D form. The star is where a group is joined. Orn(4R-OH,5R-OCH2CH2NMe3+) = C[N+](C)(C)CCO[C@@H](N[*:3])[C@H](O)C[C@H](N[*:1])C(=O)[*:2]; pTerphenylCO(4''-OnC5H11) = CCCCCOc1ccc(-c2ccc(-c3ccc(C(=O)*)cc3)cc2)cc1; Orn(4R-OH,5R-OH) = O=C([C@H](C[C@@H](O)[C@@H](O)N[*:3])N[*:1])[*:2]; hTyr(3S-OH,4S-OH) = N[C@H](C(=O)O)[C@H](O)[C@@H](O)c1ccc(O)cc1; Pro(3S-OH,4S-Me) = C[C@H]1CN[C@H](C(=O)O)[C@H]1O; Hyp = O=C(O)[C@@H]1C[C@@H](O)CN1

Columns and labels:
[1] = single-dose pharmacokinetics in beagle dogs; conditions: male, dog, in vivo, iv
Experimental: Four male, nonnaive beagle dogs received a single i.v. infusion (1.4 mg/kg) of test article over 10 min via a catheter placed in the cephalic vein. Blood draws (1.0 ml) were taken at 0.083, 0.33, 0.75, 1.5, 4.5, 12, 24, and 48 h. An additional blood draw at 72 h was obtained for CD101. Blood draws were taken from the jugular vein and were collected into K3 EDTA tubes. Following blood collection, the samples were immediately inverted several times and were held on wet ice pending centrifugation. The samples were centrifuged within ∼30 min of collection under refrigeration (∼5°C for ∼10 min at ∼2,000 g) to obtain plasma. The plasma samples were frozen immediately on dry ice after separation and were stored at approximately −70°C until analysis. Levels of test article in the plasma samples were measured by quantitative liquid chromatography-tandem mass spectrometry (LC-MS/MS) analysis compared to a calibration curve and an internal standard. Pharmacokinetic parameters were calculated from the plasma concentration-time data using standard noncompartmental methods and utilizing WinNonlin analysis software.

[2] = system: Candida parapsilosis ATCC 22019; assay: CLSI broth microdilution (M27-A3) MIC; assay type: cell-based; conditions: Lodderomyces parapsilosis, ATCC22019, 50% reduction in growth
Experimental: (§1) All yeast and mold isolates were obtained from the American Type Culture Collection (ATCC). Isolates were plated on an agar medium to verify purity, and single colonies were picked. Aspergillus isolates were resubcultured on potato dextrose slants and incubated for 7 days at 35°C. Candida isolates were streaked on SDA plates and incubated for 24 h at 35°C. RPMI 1640 medium (HyClone Laboratories, Logan, UT) and the inoculum for each organism were prepared according to Clinical and Laboratory Standards Institute (CLSI) guidelines ([27][–][29]). Stock solutions for all test articles were prepared in 100% dimethyl sulfoxide (DMSO). Susceptibility testing was performed using CLSI broth microdilution methods for Candida (M27-A3) and Aspergillus (M38-A2). Amphotericin B was tested at a range of 0.06 to 64 μg/ml; all other antifungal agents were tested at 0.015 to 16 μg/ml. Plates were incubated at 35°C and were read from the bottom using a plate viewer after 24 and 48 h for Candida and after 48 h for Aspergillus. MIC values are reported as the lowest drug concentration to yield a 50% reduction in the growth of Candida species tested compared to the control well. Minimum effective concentration (MEC) values are reported as the lowest drug concentration to yield the stunted hyphal growth of Aspergillus species tested compared to that of the control well.

[3] = system: Candida krusei ATCC 14243; assay: CLSI broth microdilution (M27-A3) MIC; assay type: cell-based; conditions: Pichia kudriavzevii, ATCC14243, 50% reduction in growth
Experimental: as §1

[4] = system: Candida lusitaniae ATCC 34134; assay: CLSI broth microdilution (M27-A3) MIC; assay type: cell-based; conditions: Clavispora lusitaniae
Experimental: as §1

[5] = system: Candida guilliermondii ATCC 34134; assay: CLSI broth microdilution (M27-A3) MIC; assay type: cell-based; conditions: Meyerozyma guilliermondii, ATCC34134, 50% reduction in growth
Experimental: as §1

[6] = system: Candida glabrata ATCC 90030; assay: CLSI broth microdilution (M27-A3) MIC; assay type: cell-based; conditions: Nakaseomyces glabratus, ATCC90030, 50% reduction in growth, read-out: MIC
Experimental: as §1

[7] = system: Candida tropicalis ATCC 90874; assay: CLSI broth microdilution (M27-A3) MIC; assay type: cell-based; conditions: 50% reduction in growth
Experimental: as §1

[8] = system: Candida albicans ATCC 90028; assay: CLSI broth microdilution (M27-A3) MIC; assay type: cell-based; conditions: 50% reduction in growth
Experimental: as §1

[9] = system: Aspergillus clavatus ATCC 10058; assay: CLSI broth microdilution (M38-A2) MEC/MIC; assay type: cell-based; conditions: read at 68 h, stunted hyphal growth
Experimental: as §1, with “Plates were incubated at 35°C and were read from the bottom using a plate viewer after 24 and 48 h for Candida and after 48 h for Aspergillus.” left out

Aspergillus spp. = assay: CLSI broth microdilution (M38-A2) MEC, whole panel; assay type: cell-based; conditions: 48 h, summary of Table 3
Experimental: as §1

[10] = system: Aspergillus fumigatus ATCC MYA-3626; assay: CLSI broth microdilution (M38-A2) MEC/MIC; assay type: cell-based; conditions: 48 h, stunted hyphal growth
Experimental: as §1

[11] = system: Aspergillus flavus ATCC 22546; assay: CLSI broth microdilution (M38-A2) MEC/MIC; assay type: cell-based; conditions: 48 h, stunted hyphal growth
Experimental: as §1

[12] = system: Aspergillus ochraceus ATCC 96919; assay: CLSI broth microdilution (M38-A2) MEC/MIC; assay type: cell-based; conditions: 48 h, stunted hyphal growth
Experimental: as §1

[13] = system: Aspergillus niger ATCC 16888; assay: CLSI broth microdilution (M38-A2) MEC/MIC; assay type: cell-based; conditions: 48 h, stunted hyphal growth
Experimental: as §1

[14] = system: Aspergillus candidus ATCC 13686; assay: CLSI broth microdilution (M38-A2) MEC/MIC; assay type: cell-based; conditions: 48 h, stunted hyphal growth
Experimental: as §1

[15] = system: Aspergillus fumigatus ATCC 204305; assay: CLSI broth microdilution (M38-A2) MEC/MIC; assay type: cell-based; conditions: 48 h, stunted hyphal growth
Experimental: as §1

[16] = humans, clinical trials ref 22; cited from earlier work
Candida albicans R303 = assay: mouse model of disseminated candidiasis, fungal burden in kidneys; assay type: in vivo; conditions: kidneys at 24 h; for reductions in fungal burden vs infected control (statistical significance): neutropenic CD-1 mice, 0.5, 1.5 or 4.5 mg/kg 2 h after inoculation
Experimental: Candida albicans R303 was grown on Sabouraud dextrose agar (SDA) plates for 24 h at 35°C. Colonies were transferred to phosphate-buffered saline (PBS) and diluted to 3.8 × 10^5 CFU/ml. Female CD-1 mice (Charles River Laboratories, Portage, MI) were rendered neutropenic via injection with cyclophosphamide (150 mg/kg) 5 days and 2 days prior to inoculation. Each animal was infected by injecting 0.1 ml of inoculum into the tail vein. In the treatment groups, animals received 0.5, 1.5, or 4.5 mg/kg of test article 2 h after inoculation. Two groups of untreated, infected controls were used to evaluate fungal burden: at 2 h when test articles were administered in the treatment groups and at 24 h when the treatment groups were sacrificed. Kidneys were harvested at 2 h in one untreated control group and at 24 h in all other groups. The kidneys were homogenized in 2 ml of sterile phosphate-buffered saline, and 0.1-ml aliquots were spread on SDA plates and incubated at 35°C overnight. Fungal burden was determined based on the log10 C. albicans CFU counts from paired kidneys. Data were analyzed using a one-way analysis of variance (ANOVA) and the Dunnett multiple comparisons test comparing the test articles to the infected control group (GraphPad InStat version 3.1; GraphPad Software, San Diego, CA).

[17] = beagle dogs, single i.v. 1.4 mg/kg, 10-min slow bolus
[18] = beagle dogs, single i.v. 1.4 mg/kg, 10-min slow bolus, read-out: V (volume of distribution)
[19] = beagle dogs, single i.v. 1.4 mg/kg, 10-min slow bolus, read-out: t1/2 (converted)
[20] = ATCC34134, 24 h, 50% reduction in growth, read-out: MIC
[21] = ATCC34134, 48 h, 50% reduction in growth, read-out: MIC

| SMILES | MIC ([2]; 24 h) | MIC ([2]; 48 h) | MIC ([3]; 24 h) | MIC ([3]; 48 h) | MIC ([5]; 24 h) | MIC ([5]; 48 h) | MIC ([6]; 24 h) | MIC ([6]; 48 h) | MIC ([7]; ATCC90874, 24 h) | MIC ([7]; ATCC90874, 48 h) | MIC ([8]; ATCC90028, 24 h) | MIC ([8]; ATCC90028, 48 h) | MEC [9] | MEC values against all Aspergillus species tested (Aspergillus spp.) | MEC [10] | MEC [11] | MEC [12] | MEC [13] | MEC [14] | MEC [15] | also measured |
| --- | --- | --- | --- | --- | --- | --- | --- | --- | --- | --- | --- | --- | --- | --- | --- | --- | --- | --- | --- | --- | --- |
| CCCCCOc1ccc(-c2ccc(-c3ccc(C(=O)N[C@H]4C[C@@H](O)[C@@H](O)NC(=O)[C@@H]5[C@@H](O)[C@@H](C)CN5C(=O)[C@H]([C@@H](C)O)NC(=O)[C@H]([C@H](O)[C@@H](O)c5ccc(O)cc5)NC(=O)[C@@H]5C[C@@H](O)CN5C(=O)[C@H]([C@@H](C)O)NC4=O)cc3)cc2)cc1 [Anidulafungin, anidulafungin] ({pTerphenylCO(4''-OnC5H11)}-[Orn(4R-OH,5R-OH)]T[Hyp][hTyr(3S-OH,4S-OH)]T[Pro(3S-OH,4S-Me)]; lactam 1-C) | 0.5 µg/mL (≈ 0.438 µM) | 0.5 µg/mL (≈ 0.438 µM) | 0.03 µg/mL (≈ 0.0263 µM) | 0.06 µg/mL (≈ 0.0526 µM) | 1 µg/mL (≈ 0.877 µM) | 2 µg/mL (≈ 1.75 µM) | 0.03 µg/mL (≈ 0.0263 µM) | 0.03 µg/mL (≈ 0.0263 µM) | ≤ 0.015 µg/mL | ≤ 0.015 µg/mL | ≤ 0.015 µg/mL | ≤ 0.015 µg/mL | ≤0.015 µg/mL | below 0.03 μg/ml | ≤0.015 µg/mL | ≤0.015 µg/mL | 0.03 µg/mL | ≤0.015 µg/mL | ≤0.015 µg/mL | ≤0.015 µg/mL | clearance [1, 17]: 0.783 mL/min/kg; Vd [1, 18]: 0.779 L/kg; half-life [1, 19]: 11.6 h; MIC ([4]; ATCC34134, 24 h): 0.125 µg/mL (≈ 0.11 µM); MIC ([4]; ATCC34134, 48 h): 0.125 µg/mL (≈ 0.11 µM) |
| CCCCCOc1ccc(-c2ccc(-c3ccc(C(=O)N[C@H]4C[C@@H](O)[C@@H](OCC[N+](C)(C)C)NC(=O)[C@@H]5[C@@H](O)[C@@H](C)CN5C(=O)[C@H]([C@@H](C)O)NC(=O)[C@H]([C@H](O)[C@@H](O)c5ccc(O)cc5)NC(=O)[C@@H]5C[C@@H](O)CN5C(=O)[C@H]([C@@H](C)O)NC4=O)cc3)cc2)cc1 [CD101] ({pTerphenylCO(4''-OnC5H11)}-[Orn(4R-OH,5R-OCH2CH2NMe3+)]T[Hyp][hTyr(3S-OH,4S-OH)]T[Pro(3S-OH,4S-Me)]; lactam 1-C) | 0.5 µg/mL | 1 µg/mL | 0.03 µg/mL | 0.03 µg/mL | 0.5 µg/mL | 2 µg/mL | 0.03 µg/mL | 0.03 µg/mL | ≤ 0.015 µg/mL | ≤ 0.015 µg/mL | 0.03 µg/mL | 0.03 µg/mL | 0.03 µg/mL | below 0.03 μg/ml | ≤0.015 µg/mL | ≤0.015 µg/mL | 0.03 µg/mL | ≤0.015 µg/mL | ≤0.015 µg/mL | ≤0.015 µg/mL | clearance [1, 17]: 0.317 mL/min/kg; Vd [1, 18]: 1.36 L/kg; half-life [1, 19]: 53.1 h; MIC [4, 20]: 0.25 µg/mL; MIC [4, 21]: 0.25 µg/mL; half-life in clinical trials [16]: > 80 h; reductions in fungal burden vs infected control (statistical significance) (Candida albicans R303): statistically significant (P < 0.01) reductions in fungal burden at all doses; fungal burden relative to limit of detection (Candida albicans R303; neutropenic CD-1 mice, 0.5, 1.5 or 4.5 mg/kg): below the limit of detection for at least one of the doses |
| CCCCCOc1ccc(-c2ccc(-c3ccc(C(=O)N[C@H]4C[C@@H](O)[C@@H](NCC[N+](C)(C)C)NC(=O)[C@@H]5[C@@H](O)[C@@H](C)CN5C(=O)[C@H]([C@@H](C)O)NC(=O)[C@H]([C@H](O)[C@@H](O)c5ccc(O)cc5)NC(=O)[C@@H]5C[C@@H](O)CN5C(=O)[C@H]([C@@H](C)O)NC4=O)cc3)cc2)cc1 [Compound 6] | 0.25 µg/mL | 0.5 µg/mL | 0.03 µg/mL | 0.03 µg/mL | 0.5 µg/mL | 1 µg/mL | 0.03 µg/mL | 0.03 µg/mL | ≤ 0.015 µg/mL | ≤ 0.015 µg/mL | 0.03 µg/mL | 0.03 µg/mL | 0.03 µg/mL | below 0.03 μg/ml | ≤0.015 µg/mL | ≤0.015 µg/mL | 0.03 µg/mL | ≤0.015 µg/mL | ≤0.015 µg/mL | ≤0.015 µg/mL | Vd ([1]; beagle, 1.4 mg/kg): 0.874 L/kg; half-life ([1]; beagle, 1.4 mg/kg): 27.6 h; MIC [4, 20]: 0.25 µg/mL; MIC [4, 21]: 0.25 µg/mL; reductions in fungal burden vs infected control (statistical significance) (Candida albicans R303): statistically significant (P < 0.01) reductions in fungal burden at all doses |
